Assay results: US11932658B2 (BRISTOL-MYERS SQUIBB COMPANY, priority 2016, dated 2024)

Molecular target: T1, PAR4 (Homo sapiens, UniProt Q96RI0)
T1 construct: expressed in transfected cells; host or cells: HEK293 PAR4 Clone 1.2A (BMS Arctic ID 383940)
T1 sequence (Q96RI0 18-385): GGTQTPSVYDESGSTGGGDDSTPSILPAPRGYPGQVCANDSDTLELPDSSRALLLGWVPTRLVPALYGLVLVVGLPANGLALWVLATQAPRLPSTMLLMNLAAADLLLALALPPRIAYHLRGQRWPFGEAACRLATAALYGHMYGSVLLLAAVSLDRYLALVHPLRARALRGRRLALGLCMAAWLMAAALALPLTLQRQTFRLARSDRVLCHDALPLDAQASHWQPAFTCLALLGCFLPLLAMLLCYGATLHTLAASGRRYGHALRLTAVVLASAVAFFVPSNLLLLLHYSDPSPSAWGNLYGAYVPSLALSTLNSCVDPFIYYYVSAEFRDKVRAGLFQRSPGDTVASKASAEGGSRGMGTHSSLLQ
Experiment: PAR4 FLIPR assay (antagonism of agonist peptide-induced calcium mobilization)
Type: cell-based
Source text: The FLIPR assay is an exemplary in vitro assay for measuring the activity of the PAR4 antagonists of the present invention. In this assay, intracellular calcium mobilization is induced in PAR4 expressing cells by a PAR4 agonist and calcium mobilization is monitored.
HEK293 cells stably expressing PAR4 were generated by a standard method of transfection of human PAR4 (F2R23) cDNA expression vector and selected based on PAR4 protein expression or mRNA expression. […] These cells also express endogenous PAR1 and can elicit calcium signal upon stimulation with PAR1 agonist peptide. Therefore, the same cells were also used to determine selectivity against PAR1 and agonist activity for both receptors. Cells from HEK293 PAR4 Clone 1.2A (BMS Arctic ID 383940) were propagated and used for calcium mobilization studies.
FLIPR-based calcium mobilization assay in HEK293 cells was used to measure PAR4 antagonism, agonism, and selectivity against PAR1. The activity of the PAR4 antagonists of the present invention were tested in PAR4 expressing cells by monitoring H-Ala-Phe(4-F)-Pro-Gly-Trp-Leu-Val-Lys-Asn-Gy-NH2-induced intracellular calcium mobilization. Counter screens for agonist activity and PAR1 antagonist activity were also performed. Briefly, PAR1/PAR4-expressing HEK293 cells were grown in DMEM (Life Technology, Grand Island, NY) containing 10% heat-inactivated FBS, 1% Penicillin-Streptomycin, 10 μg/mL blasticidin, and 100 μg/mL Zeocin at 37° C. with 5% CO2. Cells were plated overnight prior to the experiment in a black 384-well Purecoat Amine clear bottom plate (Becton Dickinson Biosciences, San Jose, CA) at 10,000 cells/well in 30 μL growth medium and incubated in a humidified chamber at 37° C. with 5% CO2 overnight. Prior to compound addition, the cell medium was replaced with 40 μL of 1× calcium and magnesium-containing Hank's Balanced Saline Solution (HBSS) (with 20 mM HEPES) and 1:1000 diluted fluorescent calcium indicator (Codex Biosolutions, Gaithersburg, MD). After a 30 minute incubation period at 37° C. and a further 30 minute incubation and equilibration period at room temperature, 20 μL test compound (diluted in 1×HBSS buffer) was added at various concentrations at 0.17% dimethyl sulfoxide (DMSO) final concentration. Changes in fluorescence intensity were measured using a Functional Drug Screening System (FDSS, Hamamatsu, Japan) to determine agonist activities. The cells were then incubated for 30 minutes at room temperature followed by addition of 20 μL of agonist peptide for antagonist activity measurement. […] Compound potency was derived from 11-point concentration-response curves.

Row | IC50 | Compound
1 | 24 nM | COc1cnc2c(-c3nc4ccc5c(c4s3)C[C@@H](C(C)O)O5)cc(C)cc2n1 (mixture of isomers) [Example 190]
2 | 71 nM | COc1cnc2c(-c3nc4cc(F)c5c(c4s3)[C@H](C)[C@H](CO)O5)cc(C)cc2n1 (relative stereo) [Example 199]
3 | 130 nM | COc1ccc(NC(=O)OC[C@@H]2COc3c(cc(Cl)c4nc(-c5cc(C)cc6nc(OC)cnc56)sc34)O2)cn1 (single isomer, unassigned) [Example 2]
4 | 0.8 nM | COc1ccc(NC(=O)OC[C@H]2COc3c(cc(C)c4nc(-c5cc(C)cc6nc(OC)cnc56)sc34)O2)cn1 (single isomer, unassigned) [Example 4]
5 | 1.8 nM | COc1cnc2c(-c3nc4c(C)cc5c(c4s3)OC[C@H](COC(=O)Nc3cccnc3)O5)cc(C)cc2n1 (single isomer, unassigned) [Example 5]
6 | 3.2 nM | COc1cnc2c(-c3nc4c(Cl)cc5c(c4s3)C[C@H](COC(=O)Nc3ccc(C)nc3)O5)cc(C)cc2n1 (single isomer, unassigned) [Example 20]
7 | 14 nM | COc1cnc2c(-c3nc4c(Cl)cc5c(c4s3)C[C@@H](COC(=O)Nc3ccc(C)nc3)O5)cc(C)cc2n1 (single isomer, unassigned) [Example 147]
8 | 1.7 nM | COc1cnc2c(-c3nc4ccc5c(c4s3)C[C@@](C)(CO)O5)cc(C)cc2n1 (single isomer, unassigned) [Example 187]
9 | 130 nM | COc1cnc2c(-c3nc4ccc5c(c4s3)C[C@](C)(CO)O5)cc(C)cc2n1 (single isomer, unassigned) [Example 188]
10 | 7.8 nM | COc1cnc2c(-c3nc4cc(F)c5c(c4s3)[C@@H](C)[C@H](CO)O5)cc(C)cc2n1 (single isomer, unassigned) [Example 201]
11 | 370 nM | COc1cnc2c(-c3nc4cc(F)c5c(c4s3)C(C)(C)[C@H](CO)O5)cc(C)cc2n1 (single isomer, unassigned) [Example 206]
12 | 9.7 nM | COc1cnc2c(-c3nc4ccc5c(c4s3)C[C@@H]([C@@H](C)O)O5)cc(C)cc2n1 (single isomer, unassigned) [Example 243]
13 | 1.9 nM | COc1cnc2c(-c3nc4c(C(O)C5(C(F)(F)F)CCC5)cc5c(c4s3)OCCO5)cc(C)cc2n1 (single isomer, unassigned) [Example 265, (2-(2-methoxy-7-methylquinoxalin-5-yl)-7,8-dihydro-[1,4]dioxino[2′,3′:3,4]benzo[1,2-d]thiazol-4-yl)(1-(trifluoromethyl)cyclobutyl)methanol]
14 | 5 nM | COc1cnc2c(-c3nc4c(C(O)C(C)(C)C)cc5c(c4s3)OCCO5)cc(Cl)cc2c1 (single isomer, unassigned) [Example 274, 1-(2-(6-chloro-3-methoxyquinolin-8-yl)-7,8-dihydro-[1,4]dioxino[2′,3′:3,4]benzo[1,2-d]thiazol-4-yl)-2,2-dimethylpropan-1-ol]
15 | 2.3 nM | COc1cnc2c(-c3nc4c(C(O)C(C)(C)C)cc5c(c4s3)OCCO5)cc(C)cc2n1 (single isomer, unassigned) [Example 277, 1-(2-(2-methoxy-7-methylquinoxalin-5-yl)-7,8-dihydro-[1,4]dioxino[2′,3′:3,4]benzo[1,2-d]thiazol-4-yl)-2,2-dimethylpropan-1-ol]
16 | 1.6 nM | COc1ccc(NC(=O)OC[C@H]2COc3c(cc(Cl)c4nc(-c5cc(C)cc6nc(OC)cnc56)sc34)O2)cn1 [Example 1, (R)-(4-chloro-2-(2-methoxy-7-methylquinoxalin-5-yl)-7,8-dihydro-[1,4]dioxino[2′,3′:3,4]benzo[1,2-d]thiazol-7-yl)methyl (6-methoxypyridin-3-yl)carbamate]
17 | 12 nM | COc1cnc2c(-c3nc4c(C)cc5c(c4s3)OCC(COC(=O)Nc3ccnc(O)c3)O5)cc(C)cc2n1 (centres unmarked) [Example 3, (2-(2-methoxy-7-methylquinoxalin-5-yl)-4-methyl-7,8-dihydro-[1,4]dioxino[2′,3′:3,4]benzo[1,2-d]thiazol-7-yl)methyl (2-hydroxypyridin-4-yl)carbamate]
18 | 10 nM | COc1cnc2c(-c3nc4c(C)cc5c(c4s3)OCC(COC(=O)Oc3cccnc3)O5)cc(C)cc2n1 (centres unmarked) [Example 6, (2-(2-methoxy-7-methylquinoxalin-5-yl)-4-methyl-7,8-dihydro-[1,4]dioxino[2′,3′:3,4]benzo[1,2-d]thiazol-7-yl)methyl pyridin-3-yl carbonate]
19 | 1 nM | COc1cnc2c(-c3cc4c5c(cc(Cl)c4o3)O[C@@H](COC(=O)Nc3ccc(C)nc3)CO5)cc(C)cc2n1 [Example 7, (R)-(6-chloro-8-(2-methoxy-7-methylquinoxalin-5-yl)-2,3-dihydro-[1,4]dioxino[2,3-e]benzofuran-3-yl)methyl (6-methylpyridin-3-yl)carbamate]
20 | 1.4 nM | COc1cnc2c(-c3cc4c5c(cc(Cl)c4o3)O[C@@H](COC(=O)Nc3ccnc(C)c3)CO5)cc(C)cc2n1 [Example 8, (R)-(6-chloro-8-(2-methoxy-7-methylquinoxalin-5-yl)-2,3-dihydro-[1,4]dioxino[2,3-e]benzofuran-3-yl)methyl (2-methylpyridin-4-yl)carbamate]
21 | 1.8 nM | COc1ccc(NC(=O)OC[C@H]2COc3c(cc(Cl)c4oc(-c5cc(C)cc6nc(OC)cnc56)cc34)O2)cn1 [Example 9, (R)-(6-chloro-8-(2-methoxy-7-methylquinoxalin-5-yl)-2,3-dihydro-[1,4]dioxino[2,3-e]benzofuran-3-yl)methyl (6-methoxypyridin-3-yl)carbamate]
22 | 8.5 nM | COc1cnc2c(-c3cc4c5c(cc(Cl)c4o3)O[C@@H](COC(=O)Nc3cccnc3)CO5)cc(C)cc2n1 [Example 10, (R)-(6-chloro-8-(2-methoxy-7-methylquinoxalin-5-yl)-2,3-dihydro-[1,4]dioxino[2,3-e]benzofuran-3-yl)methyl pyridin-3-ylcarbamate]
23 | 1.3 nM | COc1cnc2c(-c3cc4c5c(ccc4o3)O[C@@H](COC(=O)Nc3ccc(C)nc3)CO5)cc(C)cc2n1 [Example 11, (R)-(8-(2-methoxy-7-methylquinoxalin-5-yl)-2,3-dihydro-[1,4]dioxino[2,3-e]benzofuran-3-yl)methyl (6-methylpyridin-3-yl)carbamate]
24 | 3.8 nM | COc1cnc2c(-c3cc4c5c(ccc4o3)O[C@@H](COC(=O)Nc3ccnc(C)c3)CO5)cc(C)cc2n1 [Example 12, (R)-(8-(2-methoxy-7-methylquinoxalin-5-yl)-2,3-dihydro-[1,4]dioxino[2,3-e]benzofuran-3-yl)methyl (2-methylpyridin-4-yl)carbamate]
25 | 1.2 nM | COc1ccc(NC(=O)OC[C@H]2COc3c(ccc4oc(-c5cc(C)cc6nc(OC)cnc56)cc34)O2)cn1 [Example 13, (R)-(8-(2-methoxy-7-methylquinoxalin-5-yl)-2,3-dihydro-[1,4]dioxino[2,3-e]benzofuran-3-yl)methyl (6-methoxypyridin-3-yl)carbamate]
26 | 2.9 nM | COc1cnc2c(-c3cc4c5c(cc(C)c4o3)O[C@@H](COC(=O)Nc3ccc(C)nc3)CO5)cc(C)cc2n1 [Example 14, (R)-(8-(2-methoxy-7-methylquinoxalin-5-yl)-6-methyl-2,3-dihydro-[1,4]dioxino[2,3-e]benzofuran-3-yl)methyl (6-methylpyridin-3-yl)carbamate]
